Assay results as given in patent US5643920A, “Tricyclic compound having anti-allergic activities” (Mochida Pharmaceutical Co., Ltd., priority 1992, dated 1997).

Each compound was assayed on IgE antibody production (assay: Activity to inhibit the IgE antibody production in mice sensitized with egg albumin (ELISA of plasma IgE)). Conditions: Mus musculus, 240 h; 3 mg/kg/day, oral, once a day for seven times; blood ten days after sensitization; BALB/c mice; read-out: Percentage of the IgE antibody production inhibited.
Assay type: in vivo, male BALB/c mice
Protocol: Groups of five male BALB/c mice (body weight: 20 to 25 g) each were sensitized by intraperitoneally injection with 4 mg of aluminum hydroxide to which absorbed 10 μg of egg albumin. The test compound is suspended in a gum arabic solution, and the suspensions of different concentrations were orally administered to the animals once a day for seven times in total from immediately after the sensitization. The gum arabic suspension having no test compound added was used for the control.
Blood was collected from the animal ten days after the sensitization, and the collected blood was evaluated for the amount of the IgE antibody produced by ELISA. In brief, the plasma sample was added to immobilized anti-mouse igE antibody, and then, reacting with the anti-mouse IgE antibody having labeled with horseradish peroxidase. The amount of the IgE antibody produced was calculated by using the activity of the horseradish peroxidase for the index (See Meneki-to-Shikkan (Immune and Diseases), 15, 211-216, 1988).
In Table 1, there are shown the amount of the test compounds administered and the percentage of the IgE antibody production inhibited calculated by equation 1: [formula]

| Structure (SMILES) | inhibition at 3 mg/kg [%] |
| --- | --- |
| Clc1ccc(-c2cn3cccc4c3c2CCC4)cc1 [Example 3, 1-(4-chlorophenyl) -8,9-dihydro-7H-pyrrolo-[3,2,1-ij]quinoline] | 64 |
| Fc1ccc(-c2cn3cccc4c3c2CCC4)cc1 [Example 99, 8,9-dihydro-1-(4-fluorophenyl)-7H-pyrrolo-[3,2,1-ij]quinoline] | 43 |

Same assay, conditions: Mus musculus, 240 h; 10 mg/kg/day, oral, once a day for seven times; blood ten days after sensitization; BALB/c mice; read-out: Percentage of the IgE antibody production inhibited

| Structure (SMILES) | inhibition at 10 mg/kg [%] |
| --- | --- |
| NC1CCc2c(-c3ccc(Cl)cc3)cn3cccc1c23 (centres unmarked) [Example 7, 7-amino-1-(4-chlorophenyl)-8,9-dihydro-7H-pyrrolo[3,2,1-ij]quinoline] | 49 |
| C=C1CCc2c(-c3ccc(Cl)cc3)cn3cccc1c23 [Example 9, 1-(4-chlorophenyl)-8,9-dihydro-7-methylene-7H-pyrrolo[3,2,1-ij]quinoline] | 65 |
| Brc1ccc(-c2cn3cccc4c3c2CCC4)cc1 [Example 100, 1-(4-bromophenyl)-8,9-dihydro-7H-pyrrolo-[3,2,1-ij]quinoline] | 77 |
| c1ccc2cc(-c3cn4cccc5c4c3CCC5)ccc2c1 [Example 108, 8,9-dihydro-1-(2-naphthyl)-7H-pyrrolo[3,2,1-ij]quinoline] | 71 |
| Cc1ccc(-c2cn3cccc4c3c2CCC4)cc1 [Example 109, 8,9-dihydro-1-(4-methylphenyl)-7H-pyrrolo-[3,2,1-ij]quinoline] | 45 |

Same assay, conditions: Mus musculus, 240 h; 30 mg/kg/day, oral, once a day for seven times; blood ten days after sensitization; BALB/c mice; read-out: Percentage of the IgE antibody production inhibited

| Structure (SMILES) | inhibition at 30 mg/kg [%] |
| --- | --- |
| NN=C1CCc2c(-c3ccc(Br)cc3)cn3cccc1c23 [Example 4, 1-(4-bromophenyl)-8,9-dihydro-7H-pyrrolo[3,2,1-ij]quinolin-7-one hydrazone] | 47 |
| NN=C1CCn2c(-c3ccc(Cl)cc3)nc3cccc1c32 [Example 15, 2-(4-chlorophenyl)-4,5-dihydro-6H-imidazo-[4,5,1-ij]quinolin-6-one hydrazone] | 53 |
| CON=C1CCn2c(-c3ccc(Cl)cc3)nc3cccc1c32 [Example 16, 2-(4-chlorophenyl)-4,5-dihydro-6-methoxyimino-6H-imidazo[4,5,1-ij]quinoline] | 54 |
| NC1CCn2c(-c3ccc(C(F)(F)F)cc3)nc3cccc1c32 (centres unmarked) [Example 71, 6-amino-4,5-dihydro-2-(4-trifluoromethylphenyl)-imidazo[4,5,1-ij]quinoline] | 78 |
| O=C1CCc2c(-c3ccc(C(F)(F)F)cc3)cn3cccc1c23 [Example 81, 8,9-dihydro-1-(4-trifluoromethylphenyl)-7H-pyrrolo[3,2,1-ij]quinolin-7-one] | 61 |
| ON=C1CCc2c(-c3ccc(C(F)(F)F)cc3)cn3cccc1c23 [Example 92, 8,9-dihydro-1-(4-trifluoromethylphenyl)-7H-pyrrolo[3,2,1-ij]quinolin-7-oneoxi] | 50 |
| NN=C1CCc2c(-c3ccc(Cl)cc3)cn3cccc1c23 [Example 117, 1-(4-chlorophenyl)-8,9-dihydro-7H-pyrrolo-[3,2,1-ij]quinolin-7-one hydrazone] | 44 |
| CC(C)=NN=C1CCc2c(-c3ccc(Cl)cc3)cn3cccc1c23 [Example 124, 1-(4-chlorophenyl)-8,9-dihydro-7H-pyrrolo-[3,2,1-ij]quinolin-7-one isopropylidenehydrazone] | 45 |
| FC(F)(F)c1ccc(-c2cn3cccc4c3c2CCC4)cc1 [Example 130, 8,9-dihydro-1-(4-trifluoromethylphenyl)-7H-pyrrolo[3,2,1-ij]quinoline] | 86 |
| NC1CCc2c(-c3ccc(C(F)(F)F)cc3)cn3cccc1c23 (centres unmarked) [Example 132, 7-amino-8,9-dihydro-1-(4-trifluoromethylphenyl)-7H-pyrrolo[3,2,1-ij]quinoline] | 80 |
| ON=C1CCn2c(-c3ccccc3)nc3cccc1c32 [Reference Example 30, 2-phenyl-4,5-dihydro-6H-imidazo-[4,5,1-ij]quinolin-6-one oxime] | 32 |
| ON=C1CCn2c(-c3ccc(Br)cc3)nc3cccc1c32 [Reference Example 33, 2-(4-bromophenyl)-4,5-dihydro-6H-imidazo[4,5,1-ij]quinolin-6-one oxime] | 41 |
| ON=C1CCn2c(-c3ccc(C(F)(F)F)cc3)nc3cccc1c32 [Reference Example 34, 2-(4-trifluoromethylphenyl)-4,5-dihydro-6H-imidazo[4,5,1-ij]quinolin-6-oneoxime] | 32 |
| ON=C1CCn2c(-c3ccc4ccccc4c3)nc3cccc1c32 [Reference Example 36, 2-(2-naphthyl)-4,5-dihydro-6H-imidazo[4,5,1-ij]quinolin-6-one oxime] | 50 |

The compounds below were run on mice (assay: Acute toxicity, oral). Conditions: 1000 mg/kg oral, three mice per group, observed for 7 days.
Assay type: in vivo
Protocol: To groups of three mice each having a body weight of 20 to 30 g were orally administered 1000 mg/kg of the compounds of Examples 15 and 117 of the present invention.

| Structure (SMILES) | death within 7 days (acute toxicity) |
| --- | --- |
| NN=C1CCn2c(-c3ccc(Cl)cc3)nc3cccc1c32 [Example 15, 2-(4-chlorophenyl)-4,5-dihydro-6H-imidazo-[4,5,1-ij]quinolin-6-one hydrazone] | no mouse was found dead |
| NN=C1CCc2c(-c3ccc(Cl)cc3)cn3cccc1c23 [Example 117, 1-(4-chlorophenyl)-8,9-dihydro-7H-pyrrolo-[3,2,1-ij]quinolin-7-one hydrazone] | no mouse was found dead |

What follows are compounds tested on sensitized rat peritoneal cells (histamine release) (assay: Activity to suppress the histamine release from passively sensitized rat peritoneal cells). Conditions: 10 min, 1 μg/ml, 2×10^4 sensitized peritoneal cells, egg albumin, ten minutes, read-out: Percentage of the histamine release suppressed.
Assay type: cell-based, male Wistar rats
Protocol: Peritoneal cells were collected from male Wistar rats (9 week-old) killed by exsanguination. The cells were washed by centrifugation, and passively sensitized with rat anti-egg albumin serum. 2×10^4 of the sensitized peritoneal cells (1×10^4 of the sensitized peritoneal cells in the case of the compound of Example 12) were reacted with the solution of the test compound (in 0.1% bovine serum albumin solution in HBSS (Hanks' balanced salt solution) containing 0.1% DMSO). Egg albumin was added as allergen, the reaction was allowed to take place for ten minutes. After the cease of the reaction, the amount of the histamine released was determined by post-column fluorometric assay using high-speed liquid chromatography.
The amount of the test compounds administered and the percentage of the histamine release suppressed calculated by equation 2 are shown in Table 2.
Example 123: 1-(4-chlorophenyl)-8,9-dihydro-7H-pyrrolo-[3,2,1-ij]quinolin-7-one tosylhydrazone. [formula]

| Structure (SMILES) | inhibition at 1 µg/mL [%] |
| --- | --- |
| NN=C1CCn2c(-c3ccc(Cl)cc3)nc3cccc1c32 [Example 15, 2-(4-chlorophenyl)-4,5-dihydro-6H-imidazo-[4,5,1-ij]quinolin-6-one hydrazone] | 42 |

Same assay, conditions: 10 min, 3 μg/ml, 2×10^4 sensitized peritoneal cells, egg albumin, ten minutes, read-out: Percentage of the histamine release suppressed

| Structure (SMILES) | inhibition at 3 µg/mL [%] |
| --- | --- |
| CC(C)=NN=C1CCn2c(-c3ccc(Cl)cc3)nc3cccc1c32 [Example 14, 2-(4-chlorophenyl)-4,5-dihydro-6H-imidazo-[4,5,1-ij]quinolin-6-one isopropylidenehydrazone] | 55 |
| Clc1ccc(-c2nc3cccc4c3n2CCC4=NNc2ccccc2)cc1 [Example 17, 2-(4-chlorophenyl)-4,5-dihydro-6H-imidazo-[4,5,1-ij]quinolin-6-one phenylhydrazone] | 40 |
| Clc1ccc(-c2cn3cccc4c3c2CCC4=NNc2ccccc2)cc1 [Example 119, 1-(4-chlorophenyl)-8,9-dihydro-7H-pyrrolo-[3,2,1-ij]quinolin-7-one phenylhydrazone] | 42 |
| Cc1ccc(S(=O)(=O)NN=C2CCc3c(-c4ccc(Cl)cc4)cn4cccc2c34)cc1 [Example 123, 1-(4-chlorophenyl)-8,9-dihydro-7H-pyrrolo-[3,2,1-ij]quinolin-7-one tosylhydrazone] | 33 |

Same assay, conditions: 10 min, 10 μg/ml, 1×10^4 sensitized peritoneal cells (Example 12), egg albumin, ten minutes, read-out: Percentage of the histamine release suppressed

| Structure (SMILES) | inhibition at 10 µg/mL [%] |
| --- | --- |
| OC1CCn2c(-c3ccc(Cl)cc3)nc3cccc1c32 (centres unmarked) [Example 12, 2-(4-chlorophenyl)-4,5-dihydro-6-hydroxy-6H-imidazo[4,5,1-ij]quinoline] | 49 |

Same assay, conditions: 10 min, 10 μg/ml, 2×10^4 sensitized peritoneal cells, egg albumin, ten minutes, read-out: Percentage of the histamine release suppressed

| Structure (SMILES) | inhibition at 10 µg/mL [%] |
| --- | --- |
| NN=C1CCc2c(-c3ccc(Br)cc3)cn3cccc1c23 [Example 4, 1-(4-bromophenyl)-8,9-dihydro-7H-pyrrolo[3,2,1-ij]quinolin-7-one hydrazone] | 50 |
| NN=C1CCc2c(-c3ccc(Cl)cc3)cn3cccc1c23 [Example 117, 1-(4-chlorophenyl)-8,9-dihydro-7H-pyrrolo-[3,2,1-ij]quinolin-7-one hydrazone] | 47 |
| CCOC(=O)C(=O)NC1CCc2c(-c3ccc(Cl)cc3)cn3cccc1c23 (centres unmarked) [Example 122, 1-(4-chlorophenyl)-8,9-dihydro-7-ethoxyoxalylamino-7H-pyrrolo[3,2,1-ij]quinoline] | 98 |
